Entries after “also recorded” stand apart in the source; their conditions may differ.
What was measured:
U251 human glioma cells = assay: Flow cytometry of cell cycle distribution in U251 cells; format: cell-based; conditions: 10 μM HET0016, 24 and 48 hr
Experimental: Flow Cytometry: Cells were cultured in 100-mm dishes at densities that ensured exponential growth at the time of harvest. The harvesting and processing protocols used to detect DNA by flow cytometry with propidium iodide (PI) have been described previously (Reiners et al., Carcinogenesis 20: 1561-1566, 1999). Cells were analyzed with a Becton Dickinson FACScan in the Wayne State University Flow Cytometry Core Facility, Detroit, Mich. Percentages of cells in the G0/G1, S, and G2/M stages of the cell cycle were determined with a DNA histogram-fitting program (MODFIT; Verity Software, Topsham, Me.). A minimum of 10^4 events/sample were collected.

VEGF = assay: Western blot of VEGF protein expression in TA muscle; format: in vivo, rat
Experimental: Western blot analysis to detect the presence of VEGF protein: The 100-mg TA muscle specimens were homogenized, and the protein was suspended in potassium buffer (10 mM). Five micrograms of protein (as determined by a protein assay kit, Bio-Rad; Hercules, Calif.) from the TA and a tumor cell line known to express VEGF at high levels (C6, American Type Culture Collection, 107-CCL) were separated on a 12% denaturing polyacrylamide gel. The gels were transferred to a nitrocellulose membrane, which was blocked overnight in 5% nonfat dry milk diluted in Tris-buffered saline (50 mM Tris and 750 mM NaCl, pH 8) with 0.08% Tween 20 (Bio-Rad). The blots were then incubated with a […] antibody to a peptide derived from the human VEGF sequence (1:1,000 dilution, clone G143-850, Pharmingen) for 2 h at room temperature. Washed blots were then incubated with goat anti-mouse secondary antibody at a dilution of 1:1,000 for 1 h at room temperature and then subjected to a SuperSignal West Dura chemiluminescence substrate (Pierce; Rockford, Ill.) detection system. Membranes were exposed to X-ray film (Fuji Medical; Stamford, Conn.) for 15 to 30 s and developed using a Kodak M35 X-Omat processor. For the quantitative VEGF analysis, film was always exposed for a period of time that ensured that all signals were within the linear range of the detection of the film. The VEGF band intensity was quantified using a morphometry imaging system (Metamorph, Universal Imaging; West Chester, Pa.), and values are expressed as a percentage of the C6 tumor cell standard.

rat cornea = assay: Rat cornea pocket angiogenesis assay (growth factor pellets); format: in vivo
Experimental: (i) Preparation of sustained-release polymer: Sustained-release polymer pellets were prepared by making a 1:1 mix of a 12% solution in ethanol of the polymer (Hydron polyhydroxyethylmethacrylate), with saline containing the growth factors. The growth factors bFGF, VEGF, and EGF were dissolved at a concentration of 125 ng/μl. […] 2 μl of these solutions were added to each pellet. Thus, a pellet containing 250 ng of a single growth factor was implanted at random in the right or left eye. The other eye was implanted with a pellet containing the same dose of growth factor+HET0016. In some rats the pellet contained VEGF alone and VEGF+DDMS. 20 μg of the stable 20-HETE agonist analog WIT003 was implanted in one eye to determine whether it induces angiogenesis. […] 9 μl of the 1:1 Hydron/treatment mixture was placed on the ends of 1.5-cm rods. Each pellet contained 250 ng of its respective growth factor. For bFGF we used sucralfate to stabilize and allow sustained release of this growth factor (Volkin D B et al., Biochim Biophys Acta 1993, 1203:18-26). After drying the pellets for 1 hour, they were ready to be implanted into the cornea of rats.
(ii) Pellet implantation: The rats were anesthetized IM with ketamine (80 mg/kg) and xylazine (10 mg/kg). The eyes were topically anesthetized with 0.5% proparacaine (Ophthetic, Alcon, Tex.) and the globes proptosed with a jeweler's forceps. Using an operating microscope, a central intrastromal linear keratotomy, approximately 1.5 mm in length, was performed with a surgical blade (Bard-Parker #11; Becton Dickinson, Franklin Lake, N.Y.) parallel to the insertion of the lateral rectus muscle. A curved iris spatula (No. 10093-13, Fine Science Tools, Belmont, Calif.) approximately 1.5 mm wide and 5 mm long was inserted under the lip of the incision and gently pushed through the stroma toward the temporal limbus of the eye. The distance between the limbus and the base of the pocket was kept at 1.0±0.1 mm. The pellet was advanced to the temporal end of the pocket. Antibiotic ointment (erythromycin) was applied to the anterior surface of the eye.
(iv) Quantitation of corneal neovascularization: Seven days after pellet implantation, the rats were deeply anesthetized as previously described with ketamine and xylazine. The left ventricle was cannulated and the animal was perfused with 20-25 ml saline through the left ventricle followed by 20-25 ml India ink (waterproof drawing ink, Sanford, Bellwood, Ill.). The eyes were marked for orientation, enucleated and placed in 4% formalin for 24 hours. The cornea was dissected free from the surrounding globe and underlying iris, bisected, and loosely mounted between two glass slides, thus gently flattening the cornea. These flat mounts were examined microscopically using a Nikon Diaphot Epi-fluor 2 microscope attached to a CCD video camera and the images were digitized and saved using a computer.
(§1) Neovascularization was determined by comparing total vessel length in the control and experimental eyes. Vessel length was determined by tracing each vessel from the limbus to the pellet. Total length is the sum of these values in pixels and was determined using conventional image analysis software (Sigma Scan Pro, SPSS, Chicago, Ill.)

[1] = system: U251 human glioma cells spheroids; assay: U251 spheroid-induced angiogenesis in the rat cornea pocket; format: in vivo; conditions: 20 μg HET0016 pellet
Experimental: (iii) U251 human glioma cells spheroids: U251 human glioma cells were generously provided by Dr. Stephen Brown (Dept. of Radiation Oncology, Henry Ford Health System, Detroit, Mich.). The cells were maintained in DMEM (Invitrogen) supplemented with 10% heat-inactivated fetal bovine serum, penicillin (10 IU/ml), streptomycin (10 μg/ml) and 10% non-essential amino acids and grown at 37° C. in a humidified incubator containing 5% CO2. U251 spheroids were obtained by a modification of the method of Carlsson and Yuhas (Carlsson J and Yuhas J M, Recent Results Cancer Res 1984, 95:1-23). […] Spheroid diameter was measured using a dissection microscope equipped with a ruler. […]
(iv) Quantitation of corneal neovascularization: Seven days after pellet implantation, the rats were deeply anesthetized as previously described with ketamine and xylazine. […]
as §1
For these experiments, we used the human glioblastoma cancer cell line U251, known to be angiogenic (Hsu S C et al., Cancer Res 1996, 56:5684-91). […] Angiogenic responses were assessed 14 days after implantation of the spheroids.

## CCCCc1ccc(N=CNO)c(C)c1 [HET0016, N-hydroxy-N′-(4-butyl-2 methylphenyl) formamidine]
U251 human glioma cells
  effect on cell cycle distribution: arresting the cell cycle at G0/G1; also recorded: Cells containing G0/G1 DNA accumulated
VEGF; 7 days stimulation
  effect on increases in VEGF protein expression induced by electrical stimulation: did not block
VEGF; 7 days treatment
  effect on baseline VEGF expression: Neither HET0016 nor ABT had any effect
Rat cornea; 20 μg HET0016 or 10 μg DDMS per pellet, no growth factor
  angiogenic response to inhibitor alone: Neither HET0016 nor DDMS alone elicited a response different from saline
Rat cornea; EGF 250 ng/pellet + 20 μg HET0016
  effect on the angiogenic response to EGF: drastically decreased the angiogenic response; also recorded: obliterated; also recorded: blocks the angiogenic response
Rat cornea; VEGF 250 ng/pellet + 5 μg HET0016
  reduction of angiogenic responses to VEGF: about 50%
Rat cornea; VEGF 250 ng/pellet + 20 μg HET0016, 7 days
  effect on the angiogenic response to VEGF: almost completely abolished; also recorded: obliterated; also recorded: inhibit angiogenic responses to VEGF
Rat cornea; VEGF 250 ng/pellet + 40 μg HET0016
  effect on the angiogenic response to VEGF: almost completely abolished
Rat cornea; bFGF 250 ng/pellet + 20 μg HET0016
  effect on the angiogenic response to bFGF: drastically decreased the angiogenic response; also recorded: obliterated; also recorded: blocks the angiogenic response
[1]; 2 weeks
  effect on corneal neovascularization induced by U251 spheroids: significantly inhibited; also recorded: decreases angiogenesis
[1]; 14 days after implantation
  decrease of angiogenic responses to U251 spheroids: approximately 70%

Reference: patent US20050124618A1, “Methods of modulating angiogenesis and cancer cell proliferation” (priority 2003, published 2005)
